Data reported in patent US20100120063A1, “GPCR Arrestin Assays” (DISCOVERX CORPORATION, priority 2008, published 2010).

Tests used:
Assay type in all cases: cell-based
OPRM1-PK = target: T1, OPRM1-PK (Homo sapiens, UniProt P35372); assay: Arrestin-EA EFC agonist assay, U2OS cells expressing OPRM1-PK only
T1 construct: PK (beta-galactosidase ED); expressed in transfected cells; host or cells: U2OS
Description: (§2) For all assays, 10,000 cells per well were seeded in 20 μL media and incubated overnight in 1% Fetal Bovine Serum and appropriate basal media (F-12 or DMEM). For agonist assays, 5 μL compound was added to cells and incubated at Room Temp. […] Arrestin-EA complex formation with the GPCR was detected with 50% (v/v) of PathHunter Detection Reagent (Dx 93-0001, PathHunter reagents are available from DiscoveRx, Corp., Fremont, Calif.) (Lysis buffer active ingredient 2% CHAPS, Emerald II and Galacton star are from Applied Biosystems.) Data was read on Packard Victor 2 or PerkinElmer ViewLux readers and analyzed using GraphPad Prism 4.

CCKAR-PK [1] = target: T2, CCKAR-PK (Homo sapiens, UniProt P32238); assay: Calcium concentration in HEK cell line expressing CCKAR-PK and arrestin-EA (FIG. 10A, 10C)
T2 construct: PK (beta-galactosidase ED); expressed in transfected cells; host or cells: HEK
T2 sequence (P32238 1-428): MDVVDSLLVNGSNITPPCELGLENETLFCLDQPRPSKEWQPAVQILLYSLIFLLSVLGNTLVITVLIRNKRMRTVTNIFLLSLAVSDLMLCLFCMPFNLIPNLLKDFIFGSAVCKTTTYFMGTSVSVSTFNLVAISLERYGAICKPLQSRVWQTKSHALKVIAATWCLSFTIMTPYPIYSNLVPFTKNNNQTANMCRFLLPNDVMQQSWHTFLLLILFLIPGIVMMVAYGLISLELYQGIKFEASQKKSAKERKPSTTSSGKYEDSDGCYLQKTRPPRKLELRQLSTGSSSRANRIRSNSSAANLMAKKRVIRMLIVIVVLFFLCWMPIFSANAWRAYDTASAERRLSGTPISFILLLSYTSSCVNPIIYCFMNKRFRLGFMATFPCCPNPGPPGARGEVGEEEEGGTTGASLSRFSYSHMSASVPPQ

CCKAR-PK [2] = target: T2, CCKAR-PK; assay: Arrestin-EA binding to CCKAR-PK in HEK cell line (FIG. 10B, 10D)
Description: (§3) For all assays, 10,000 cells per well were seeded in 20 μL media and incubated overnight in 1% Fetal Bovine Serum and appropriate basal media (F-12 or DMEM). For agonist assays, 5 μL compound was added to cells and incubated at Room Temp. For antagonist assays, 5 μL 5× compound was added to cells and incubated at 37° C./5% CO2 for 10 minutes, after which 5 μL 6× agonist was added and incubated for 60 minutes at 37° C. Arrestin-EA complex formation with the GPCR was detected with 50% (v/v) of PathHunter Detection Reagent (Dx 93-0001, PathHunter reagents are available from DiscoveRx, Corp., Fremont, Calif.) (Lysis buffer active ingredient 2% CHAPS, Emerald II and Galacton star are from Applied Biosystems.) Data was read on Packard Victor 2 or PerkinElmer ViewLux readers and analyzed using GraphPad Prism 4.

CHRM2 [3] = target: T3, CHRM2 (Homo sapiens, UniProt P08172); assay: Arrestin-EA / GPCR-PK β-galactosidase EFC screening assay, CHRM2 fused to mutated ED (PK1)
T3 construct: gly-ser flexible linker […]; expressed in transfected cells; host or cells: CHO
T3 sequence (P08172 1-466): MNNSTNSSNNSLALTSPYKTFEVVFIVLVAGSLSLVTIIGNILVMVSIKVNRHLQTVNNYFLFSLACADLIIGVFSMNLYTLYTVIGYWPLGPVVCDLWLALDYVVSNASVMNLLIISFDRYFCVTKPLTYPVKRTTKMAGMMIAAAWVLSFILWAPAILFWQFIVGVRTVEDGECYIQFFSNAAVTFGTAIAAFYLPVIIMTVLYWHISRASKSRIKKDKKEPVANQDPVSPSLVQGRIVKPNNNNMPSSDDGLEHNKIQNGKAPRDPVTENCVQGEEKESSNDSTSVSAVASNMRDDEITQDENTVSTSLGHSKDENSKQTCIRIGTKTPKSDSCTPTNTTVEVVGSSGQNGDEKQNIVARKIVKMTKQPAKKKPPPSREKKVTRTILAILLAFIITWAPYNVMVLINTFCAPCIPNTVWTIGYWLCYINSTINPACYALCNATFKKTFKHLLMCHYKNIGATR
Description: (§1) To perform the screening assay, 20 μl of cells in complete media or serum-free media (OPTI-MEM® Invitrogen Cat. #31985-070) were plated at 5, 10 and 15×10^3 cells per well in a white 384 well microplate and incubated at 37° C. overnight. Cells are allowed to adhere and grown overnight. Cells may be screened for their response in serum free or complete medium. Serial dilutions are then performed in serum-free medium or buffer for a volume of 25 μl. Depending on the candidate compound, the dilution may occur in the presence of 0.1% BSA or ≦1% final concentration of an organic solvent, e.g., DMSO and methanol. 5 μl of each candidate compound is added per well. The assay mixture is then incubated for 90 min at 37° C. 12.5 μl of the detection reagent is then added. The detection reagent is prepared by combining 1 part Galacton Star Substrate® with 5 parts Emerald II® Solution and 19 parts Path-Hunter Cell Assay Buffer (lysis buffer). The assay mixture is then incubated for 1 h at room temperature. Chemiluminescence is then read at 1.0 sec/well on PMT based instrument or 5-20 sec on an imager.

CHRM2 [4] = target: T3, CHRM2; assay: Arrestin-EA / GPCR-PK EFC screening assay, CHO Arrestin + CHRM2-PK2 (wild-type ED)
Description: as §1

OPRD1-PK = target: T4, OPRD1-PK (Homo sapiens, UniProt P41143); assay: Arrestin-EA EFC agonist assay, CHO cells expressing OPRD1-PK (FIG. 12A)
T4 construct: cloning junction ISFEL + gly-ser linker […]; PK1 (mutated ED, H to R); expressed in transfected cells; host or cells: CHO
Description: as §2

OPRD1-PK and OPRM1 = target: T5, OPRD1-PK and OPRM1 (Homo sapiens, UniProt P35372); assay: Transactivation assay, CHO cells co-expressing OPRD1-PK and OPRM1 (FIG. 12C)
T5 construct: expressed in transfected cells; host or cells: CHO
T5 sequence (P35372 whole entry, species assumed): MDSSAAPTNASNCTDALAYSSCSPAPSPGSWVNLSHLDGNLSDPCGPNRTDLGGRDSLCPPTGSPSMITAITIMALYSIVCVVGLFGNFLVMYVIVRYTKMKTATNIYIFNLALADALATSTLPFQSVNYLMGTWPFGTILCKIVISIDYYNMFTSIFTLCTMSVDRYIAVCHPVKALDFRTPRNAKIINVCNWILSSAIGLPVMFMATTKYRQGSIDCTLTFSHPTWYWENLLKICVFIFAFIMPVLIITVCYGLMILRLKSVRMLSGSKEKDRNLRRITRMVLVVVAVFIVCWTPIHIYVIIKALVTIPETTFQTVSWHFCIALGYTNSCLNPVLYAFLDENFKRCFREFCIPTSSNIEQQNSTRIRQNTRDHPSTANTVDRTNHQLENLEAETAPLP
Description: as §2

OPRM1-PK and CCR2 = target: T6, OPRM1-PK and CCR2 (Homo sapiens, UniProt P41597); assay: Transactivation assay, U2OS cells co-expressing OPRM1-PK and CCR2 (FIG. 13A); conditions: CCR2 coexpressed with OPRM1-PK; FIG. 13 graph A
T6 construct: expressed in transfected cells; host or cells: U2OS
T6 sequence (P41597 whole entry, species assumed): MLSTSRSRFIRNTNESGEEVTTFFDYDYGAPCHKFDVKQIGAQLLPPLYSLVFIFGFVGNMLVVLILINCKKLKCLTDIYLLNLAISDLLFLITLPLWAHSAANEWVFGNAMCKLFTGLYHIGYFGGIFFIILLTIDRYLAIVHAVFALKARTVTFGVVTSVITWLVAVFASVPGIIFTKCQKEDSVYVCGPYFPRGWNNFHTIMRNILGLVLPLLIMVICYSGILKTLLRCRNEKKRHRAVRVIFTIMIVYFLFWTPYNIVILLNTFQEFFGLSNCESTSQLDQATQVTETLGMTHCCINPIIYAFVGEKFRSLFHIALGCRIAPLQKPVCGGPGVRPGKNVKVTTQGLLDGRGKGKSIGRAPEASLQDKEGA
Description: as §2

OPRM1-PK and CCR5 = target: T7, OPRM1-PK and CCR5 (Homo sapiens, UniProt P51681); assay: Transactivation assay, U2OS cells co-expressing OPRM1-PK and CCR5 (FIG. 13B); conditions: CCR5 coexpressed with OPRM1-PK; FIG. 13 graph B
T7 construct: expressed in transfected cells; host or cells: U2OS
T7 sequence (P51681 whole entry, species assumed): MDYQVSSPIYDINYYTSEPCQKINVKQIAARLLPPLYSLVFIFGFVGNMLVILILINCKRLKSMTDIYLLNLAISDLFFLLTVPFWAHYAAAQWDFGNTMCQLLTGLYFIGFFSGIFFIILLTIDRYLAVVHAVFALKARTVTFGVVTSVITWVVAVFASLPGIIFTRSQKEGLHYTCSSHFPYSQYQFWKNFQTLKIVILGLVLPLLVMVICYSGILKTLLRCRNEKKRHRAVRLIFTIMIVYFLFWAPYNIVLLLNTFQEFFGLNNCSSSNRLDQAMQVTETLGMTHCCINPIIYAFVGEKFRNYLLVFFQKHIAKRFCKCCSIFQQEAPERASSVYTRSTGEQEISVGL
Description: as §3

[5] = curve fit, signal, U2OS OPRM1-PK only
[6] = curve fit, chemiluminescence signal, FIG. 4

T1 sequence (P35372 whole entry): as the sequence (P35372 whole entry, species assumed) above

CC(C)C[C@@H](NC(=O)[C@H](Cc1ccccc1)NC(=O)CNC(=O)[C@@H](C)NC(=O)[C@@H](N)Cc1ccc(O)cc1)C(=O)O [DADLE]
HILLSLOPE (OPRM1-PK; U2OS OPRM1-PK only): 1.483 | BOTTOM (OPRM1-PK; [5]): 625.6 | TOP (OPRM1-PK; [5]): 17070 | S:B (OPRM1-PK; signal to background, U2OS OPRM1-PK only): [S:B = 32.7]

C[N+](C)(C)CCOC(N)=O [carbachol]
effect on calcium concentration (CCKAR-PK [1]): some effect | effect on the binding of arrestin-EA to CCKAR-PK (CCKAR-PK [2]): substantially no effect

O=C1CCCN1CC#CCN1CCCC1 [oxotremorine]
response with PK1 (CHRM2 [3]; CHRM2, FIG. 4): no response | fold response with PK1 (CHRM2 [3]; CHRM2 fused to PK1, FIG. 1A): 1.4 fold | S:B PK1 (CHRM2 [3]; signal to background ratio, CHRM2 fused to PK1, FIG. 1A): 1.6 | EC50 (CHRM2 [4]; FIG. 4): 6.29 µM | HILLSLOPE (CHRM2 [4]; FIG. 4): 1.183 | response with PK2 (CHRM2 [4]; FIG. 4): robust response | BOTTOM (CHRM2 [4]; [6]): 335.9 | TOP (CHRM2 [4]; [6]): 2037 | S:B PK2 (CHRM2 [4]; signal to background ratio, CHRM2 fused to PK2, FIG. 1B): 6.1

C[C@@H](NC(=O)[C@@H](N)Cc1ccc(O)cc1)C(=O)NCC(=O)N(C)[C@@H](Cc1ccccc1)C(=O)NCCO [DAMAGO, [D-Ala2,N-Me-Phe4,Gly5-ol]-enkephalin]
HILLSLOPE (OPRM1-PK; U2OS OPRM1-PK only): 0.7069 | arrestin-EA binding response (OPRM1-PK; cells expressing only OPRM1-PK): presence of response | TOP (OPRM1-PK; [5]): 10875 | HILLSLOPE (OPRD1-PK; FIG. 12A): 1.293 | response (OPRD1-PK; cells expressing only OPRD1-PK): absence of response | BOTTOM (OPRD1-PK; curve fit, signal, FIG. 12A): 519.8 | TOP (OPRD1-PK; curve fit, signal, FIG. 12A): 2809 | HILLSLOPE (OPRD1-PK and OPRM1; FIG. 12C): 1.571 | transactivation response (OPRD1-PK and OPRM1; cells expressing OPRD1-PK and OPRM1): lack of response | BOTTOM (OPRD1-PK and OPRM1; curve fit, signal, FIG. 12C): 20.31 | TOP (OPRD1-PK and OPRM1; curve fit, signal, FIG. 12C): 201.4 | S:B (OPRD1-PK and OPRM1; signal to background, FIG. 12C): [S:B = 31.9]

CCL3: ligand added to CCR5 cells
transactivation response (OPRM1-PK and CCR2): no response | transactivation response (OPRM1-PK and CCR5): no response
